Test results taken from US20230116602A1, “MCL1 INHIBITORS AND USES THEREOF” (California Institute of Technology, priority 2019, published 2023).

Key:
[1] = target: BCL2 (Homo sapiens, UniProt P10415); test: BCL2 affinity assay (competition binding, qPCR readout); conditions: recombinant BCL2, 11-point 3-fold dilution series
Description: (§1) Recombinant MCL1, BCL2 and BCXL proteins were prepared in either an E. coli host derived from the BL21 strain or in HEK-293 cells. The recombinant proteins were subsequently tagged with DNA for qPCR detection. Streptavidin-coated magnetic beads were treated for 30 minutes at room temperature with the respective biotinylated peptide ligands for each recombinant protein to generate affinity resins for the assays. The liganded beads were blocked with excess biotin and washed with blocking buffer (SeaBlock (Pierce), 1% BSA, 0.05% Tween 20, 1 mM DTT) to remove unbound ligand and to reduce nonspecific binding. Binding reactions were assembled by combining recombinant protein, liganded affinity beads, and test compounds in 1× binding buffer (20% SeaBlock, 0.17×PBS, 0.05% Tween 20, 6 mM DTT). Test compounds were prepared as 111X stocks in 100% DMSO. The compounds were then diluted directly into the assays such that the final concentration of DMSO was 0.9%. The assay plates were incubated at room temperature with shaking for 1 hour and the affinity beads were washed with wash buffer (1×PBS, 0.05% Tween 20). The beads were then re-suspended in elution buffer (1×PBS, 0.05% Tween 20, 0.5 μM non-biotinylated affinity ligand) and incubated at room temperature with shaking for 30 minutes. The recombinant protein concentration in the eluates was measured by qPCR. Kds were determined using an 11-point 3-fold compound dilution series with three DMSO control points.

[2] = target: MCL1 (Homo sapiens, UniProt Q07820); test: MCL1 affinity assay (competition binding, qPCR readout); conditions: recombinant MCL1, 11-point 3-fold dilution series
MCL1, sequence (Q07820 whole entry): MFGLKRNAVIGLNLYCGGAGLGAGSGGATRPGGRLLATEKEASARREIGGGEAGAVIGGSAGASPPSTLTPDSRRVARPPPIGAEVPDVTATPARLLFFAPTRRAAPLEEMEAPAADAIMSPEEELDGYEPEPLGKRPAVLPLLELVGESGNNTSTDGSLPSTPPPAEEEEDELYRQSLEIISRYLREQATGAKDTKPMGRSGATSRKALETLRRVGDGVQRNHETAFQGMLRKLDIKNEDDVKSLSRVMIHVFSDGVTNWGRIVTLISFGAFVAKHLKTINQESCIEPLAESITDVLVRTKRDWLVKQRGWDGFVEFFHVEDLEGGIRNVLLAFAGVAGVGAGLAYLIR
How it was run: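 Kds derived from an 11-point 3-fold compound series measured by qPCR of protein eluted from ligand beads. Recombinant, DNA-tagged protein from E. coli or HEK-293 was mixed with compound and peptide-liganded beads in SeaBlock/PBS/Tween/DTT buffer for 1 hour at room temperature (0.9% DMSO).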

[3] = target: BCLXL (Homo sapiens, UniProt Q07817); test: BCLXL affinity assay (competition binding, qPCR readout); conditions: recombinant BCLXL, 11-point 3-fold dilution series
BCLXL, sequence (Q07817 whole entry): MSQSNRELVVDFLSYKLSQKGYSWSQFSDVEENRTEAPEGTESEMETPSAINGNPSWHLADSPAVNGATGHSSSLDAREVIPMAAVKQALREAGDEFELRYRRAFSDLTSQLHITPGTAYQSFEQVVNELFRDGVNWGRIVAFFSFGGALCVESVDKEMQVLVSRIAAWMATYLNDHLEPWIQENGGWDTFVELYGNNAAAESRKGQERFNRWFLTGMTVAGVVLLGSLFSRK
Description: as §1

[4] = tested on: drug-resistant cell lines of Table 3; test: Cell line growth retardation assay, resistant cohort; format: cell-based, Human; conditions: Homo sapiens, 144 h; arithmetic mean of IC50s over the resistant cohort of Table 3, 6 days growth; read-out: AvgRes IC50
How it was run: (§2)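 Over 6 days of treatment at six concentrations (0.0032–10 μM), given after a 24 h post-seeding rest, population doublings were counted by imaging against a pre-dose baseline and compared with vehicle. Per-line IC50 values came from dose-response fits; cohort averages used arithmetic means, with sensitive/resistant grouping based on response to reference MCL1 inhibitors.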

[5] = tested on: drug-sensitive cell lines of Table 3; test: Cell line growth retardation assay, sensitive cohort; format: cell-based, Human; conditions: for IC50: Homo sapiens, 144 h, arithmetic mean of IC50s over the sensitive cohort of Table 3, 6 days growth, read-out: AvgSen IC50; for Fold Diff: average IC50 of resistant cohort divided by average IC50 of sensitive cohort
How it was run: as §2

BCL2, sequence (P10415 whole entry): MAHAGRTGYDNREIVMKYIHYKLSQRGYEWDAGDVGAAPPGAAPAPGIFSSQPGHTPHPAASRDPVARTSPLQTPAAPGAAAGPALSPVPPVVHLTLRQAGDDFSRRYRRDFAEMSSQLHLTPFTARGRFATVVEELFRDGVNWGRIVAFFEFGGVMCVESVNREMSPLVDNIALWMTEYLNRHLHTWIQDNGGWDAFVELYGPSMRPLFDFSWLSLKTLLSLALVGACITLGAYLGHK

Structure (SMILES)	Kd [1]	Kd [2]	Kd [3]	IC50 [4]	IC50 [5]	Fold Diff [5]
COc1cccc(-c2ncc3snc(O[C@H](Cc4ccccc4OCc4ccnn4CC(F)(F)F)C(=O)O)c3c2-c2ccc(OCCN3CCN(C)CC3)c(Cl)c2C)c1 (atropisomer, axis not shown) [Compound 23]	> 1500 nM	101 to 500 nM	> 1500 nM	> 5000 nM	≤ 1000 nM	+ (“+” represents a fold difference of 10 or more)
Cc1c(-c2c(C3CCC3)ncc3snc(O[C@H](Cc4ccccc4OCc4ccnn4CC(F)(F)F)C(=O)O)c23)ccc(OCCN2CCN(C)CC2)c1Cl (atropisomer, axis not shown) [Compound 29]	> 1500 nM	≤ 100 nM	> 1500 nM	> 5000 nM	≤ 1000 nM	+ (“+” represents a fold difference of 10 or more)
COc1cc(-c2nccc(COc3ccccc3C[C@@H](Oc3nsc4cnc(-c5cccc(F)c5)c(-c5ccc(OCCN6CCN(C)CC6)c(Cl)c5C)c34)C(=O)O)n2)ccn1 (atropisomer, axis not shown) [Compound 71]	> 1500 nM	101 to 500 nM	> 1500 nM	> 5000 nM	≤ 1000 nM	+ (“+” represents a fold difference of 10 or more)
Cc1c(-c2c(Cl)ncc3snc(O[C@H](Cc4ccccc4OCc4ccnn4CC(F)(F)F)C(=O)O)c23)ccc(OCCN2CCN(C)CC2)c1Cl (single isomer, unassigned) [Compound 3]	> 1500 nM	> 1500 nM	> 1500 nM	> 5000 nM	> 5000 nM	− (“−” represents a fold difference less than 10)
COc1ccccc1-c1nccc(COc2ccccc2C[C@@H](Oc2nsc3cnc(-c4ccc(F)cc4)c(-c4ccc(OCCN5CCN(C)CC5)c(Cl)c4C)c23)C(=O)O)n1 [Compound 40]	> 1500 nM	≤ 100 nM	> 1500 nM	> 5000 nM	≤ 1000 nM	+ (“+” represents a fold difference of 10 or more)
COc1cccc(-c2ncc3snc(O[C@H](Cc4ccccc4OCc4ccnc(-c5ccccc5OC)n4)C(=O)O)c3c2-c2ccc(OCCN3CCCC3)c(Cl)c2C)c1 (atropisomer, axis not shown) [Compound 50]	> 1500 nM	≤ 100 nM	> 1500 nM	> 5000 nM	≤ 1000 nM	+ (“+” represents a fold difference of 10 or more)
Cc1c(-c2c(-c3ccc(F)c4ccoc34)ncc3snc(O[C@H](Cc4ccccc4OCc4ccnn4CC(F)(F)F)C(=O)O)c23)ccc(OCCN2CCN(C)CC2)c1Cl (atropisomer, axis not shown) [Compound 14]	> 1500 nM	101 to 500 nM	> 1500 nM	> 5000 nM	1000 to 5000 nM	− (“−” represents a fold difference less than 10)
COc1cccc(-c2ncc3snc(O[C@H](Cc4ccccc4OCc4ccnc(-c5ccccc5OC)n4)C(=O)O)c3c2-c2ccc(O)c(Cl)c2C)c1 (atropisomer, axis not shown) [Compound 41]	> 1500 nM	≤ 100 nM	> 1500 nM	> 5000 nM	1000 to 5000 nM	− (“−” represents a fold difference less than 10)
Cc1c(-c2c(-c3cccc(C(F)(F)F)c3)ncc3snc(O[C@H](Cc4ccccc4OCc4ccnn4CC(F)(F)F)C(=O)O)c23)ccc(OCCN2CCN(C)CC2)c1Cl (atropisomer, axis not shown) [Compound 22]	> 1500 nM	501 to 1500 nM	> 1500 nM	> 5000 nM	1000 to 5000 nM	− (“−” represents a fold difference less than 10)
Cc1c(-c2c(-c3cccc4ccsc34)ncc3snc(O[C@H](Cc4ccccc4OCc4ccnn4CC(F)(F)F)C(=O)O)c23)ccc(OCCN2CCN(C)CC2)c1Cl (atropisomer, axis not shown) [Compound 24]	> 1500 nM	> 1500 nM	> 1500 nM	> 5000 nM	1000 to 5000 nM	− (“−” represents a fold difference less than 10)
Cc1c(-c2c(-c3ccc4c(ccn4C)c3)ncc3snc(O[C@H](Cc4ccccc4OCc4ccnn4CC(F)(F)F)C(=O)O)c23)ccc(OCCN2CCN(C)CC2)c1Cl (atropisomer, axis not shown) [Compound 10]	> 1500 nM	> 1500 nM	> 1500 nM	> 5000 nM	> 5000 nM	− (“−” represents a fold difference less than 10)
COc1cccc(-c2ncc3snc(O[C@H](Cc4ccccc4OCc4ccnc(-c5ccccc5OC)n4)C(=O)O)c3c2-c2ccc(OC[C@H]3CCCN3C)c(Cl)c2C)c1 (atropisomer, axis not shown) [Compound 48]	> 1500 nM	≤ 100 nM	> 1500 nM			
Cc1c(-c2c(-c3cnn(C)c3)ncc3snc(O[C@H](Cc4ccccc4OCc4ccnn4CC(F)(F)F)C(=O)O)c23)ccc(OCCN2CCN(C)CC2)c1Cl (atropisomer, axis not shown) [Compound 28]	> 1500 nM	501 to 1500 nM	> 1500 nM			
COc1cccc(-c2ncc3snc(O[C@H](Cc4ccccc4OCc4ccnc(-c5ccccc5OC)n4)C(=O)O)c3c2-c2ccc(OCCN3CCN(C)CC3)c(Cl)c2C)c1 (atropisomer, axis not shown) [Compound 39]		501 to 1500 nM		1000 to 5000 nM	1000 to 5000 nM	− (“−” represents a fold difference less than 10)
CCn1ccc(-c2ncc3snc(O[C@H](Cc4ccccc4OCc4ccnc(-c5ccccc5OC)n4)C(=O)O)c3c2-c2ccc(OCCN3CCN(C)CC3)c(Cl)c2C)n1 (atropisomer, axis not shown) [Compound 76]		501 to 1500 nM		> 5000 nM	> 5000 nM	− (“−” represents a fold difference less than 10)
COc1ccccc1-c1nccc(COc2ccccc2C[C@@H](Oc2nsc3cnc(-c4ccn(CC(C)C)n4)c(-c4ccc(OCCN5CCN(C)CC5)c(Cl)c4C)c23)C(=O)O)n1 (atropisomer, axis not shown) [Compound 38]		≤ 100 nM		> 5000 nM	≤ 1000 nM	+ (“+” represents a fold difference of 10 or more)
COc1ccccc1-c1nccc(COc2ccccc2C[C@@H](Oc2nsc3cnc(-c4cccc(F)c4)c(-c4ccc(OCCN(C)C)c(Cl)c4C)c23)C(=O)O)n1 (atropisomer, axis not shown) [Compound 55]		≤ 100 nM		> 5000 nM	≤ 1000 nM	+ (“+” represents a fold difference of 10 or more)
COc1ccccc1-c1nccc(COc2ccccc2C[C@@H](Oc2nsc3cnc(C4CCC4)c(-c4ccc(OC)c(Cl)c4C)c23)C(=O)OCc2oc(=O)oc2C)n1 (atropisomer, axis not shown) [Compound 106]		101 to 500 nM		> 5000 nM	1000 to 5000 nM	− (“−” represents a fold difference less than 10)
Cc1c(-c2cc(-n3c(C)c(Cl)c4cc(Cl)cnc43)cc3snc(O[C@H](Cc4ccccc4OCc4ccnn4CC(F)(F)F)C(=O)O)c23)ccc(OCCN2CCN(C)CC2)c1Cl [Compound 100]		501 to 1500 nM		> 5000 nM	1000 to 5000 nM	− (“−” represents a fold difference less than 10)
Cc1c(-c2c(C3CCC3)ncc3snc(O[C@H](Cc4ccccc4OCc4ccnc(-c5cccc(N6CCOCC6)c5)n4)C(=O)O)c23)ccc(OCCN2CCN(C)CC2)c1Cl (atropisomer, axis not shown) [Compound 112]		≤ 100 nM		> 5000 nM	≤ 1000 nM	+ (“+” represents a fold difference of 10 or more)
COc1cccc(-c2ncc3snc(O[C@H](Cc4ccccc4OCc4ccnc(-c5ccccc5OC(F)F)n4)C(=O)O)c3c2-c2ccc(OCCN3CCN(C)CC3)c(Cl)c2C)c1 (atropisomer, axis not shown) [Compound 66]		≤ 100 nM		> 5000 nM	≤ 1000 nM	+ (“+” represents a fold difference of 10 or more)
